3 molecules from publication PMC7577153, “Identification of Small-Molecule Inhibitors Targeting Porphyromonas gingivalis Interspecies Adherence and Determination of Their In Vitro and In Vivo Efficacies” (Antimicrobial Agents and Chemotherapy, 2020) can be followed below.

The subject of data set [1] is S. gordonii. As to the kind of experiment: microbicidal activity: growth curve in medium with compound. In kind it is cell-based, Streptococcus gordonii. To be noted: 40 μM, 24 h, OD600. The method, then:
(§1) To confirm that N7, N17, and V8 function by inhibiting P. gingivalis adherence to S. gordonii rather than acting as antibacterial agents, the microbicidal activity of the compounds was determined by growing the organisms in medium containing 40 μM of each compound for 24 h. […] The structures of compounds N7, N17, and V8 are shown in Fig. 3A, B, and C, respectively. In addition, overlays of compound N17 with the NITVK motif and compound V8 with the VXXLL motif of Ag I/II are shown in Fig. 3D and E, respectively.
(§2) FIG 2 S. gordonii (A) and P. gingivalis (B) were grown for 24 h in medium containing 40 μM of each compound, and growth was quantified at various time points by measuring the OD600 for each culture. One-way analysis of variance (ANOVA) was performed to determine statistical significance.
(§3) P. gingivalis ATCC 33277 was cultured in reduced Trypticase soy broth-yeast extract (TSBY) medium comprised of 30 g/liter TSB (Difco Laboratories Inc., Detroit, MI), 5% (wt/vol) yeast extract supplemented with 5 mg/liter hemin and 1 mg/liter menadione under anaerobic conditions (10% CO2, 10% H2, and 80% N2) at 37°C for 48 h. Reduced TSBY medium was prepared by incubating the medium under anaerobic conditions at 37°C for 24 h prior to bacterial inoculation. Streptococcus gordonii DL1 was grown in brain heart infusion (BHI) (Difco Laboratories Inc.) broth supplemented with 5% (wt/vol) yeast extract under anaerobic conditions as described above.

The test system of data set [2] is P. gingivalis. The description is as above. The data set is classed as cell-based, Porphyromonas gingivalis. The settings on record: 40 μM, 24 h, OD600. Here is the method:
as §1, §2, §3

Data set [3] deals with P. gingivalis virulence. The data set can be described thus: murine model of periodontitis (alveolar bone loss). The data set is classed as in vivo, BALB/c/ByJ mice. The settings on record: for alveolar bone loss relative to sham-infected mice / alveolar bone loss versus infected untreated mice: mice infected with S. gordonii and P. gingivalis, compound 40 μM; for alveolar bone loss versus infected untreated mice: P < 0.001. Here is the method:
The in vivo activity of compounds N7, N17, and V8 was determined using a murine model of periodontitis as described by Deap et al. ([16]). […] Therefore, P. gingivalis virulence was assessed by alveolar bone loss, which was determined by measuring the distance from the alveolar bone crest (ABC) to the cemento enamel junction (CEJ).
The protocol used in this study (protocol 16486) was approved by the Institutional Animal Care and Use Committee at the University of Louisville under federal guidelines for the use and care of laboratory animals. Ten-week-old BALB/c/ByJ specific-pathogen-free mice were obtained from Jackson Laboratory (Bar Harbor, ME) and housed in the University of Louisville Research Resource Center animal facility. During the entire course of the study, mice were fed with Lab Diet 5001 (Purina Mills, LLC, Gray Summit, MO).
Oral infection of the mice was carried out essentially as described by Deap et al. ([18]). Prior to infection, mice were subjected to a combined antibiotic treatment for 10 days by providing animals with water ad libitum containing 800 μg/ml sulfamethoxazole (MP Biomedical, Solon, OH) and 400 μg/ml trimethoprim (Sigma, St. Louis, MO). Four days after the conclusion of the antibiotic treatment, mice were infected by oral gavage with 10^9 CFU of S. gordonii suspended in 2% carboxymethylcellulose (CMC; MP Biomedical) in sterile PBS using a 2.25-mm feeding needle (Popper and Son, Inc., New Hyde Park, NY). Infections were conducted every other day for a period of 10 days. Subsequently, mice were infected with 10^9 CFU P. gingivalis suspended in 2% CMC in PBS alone or in 2% CMC in PBS containing the small-molecule inhibitors every other day for 10 days. After the last infection with P. gingivalis, the mice were rested for 47 days and then euthanized by carbon dioxide asphyxiation.
To obtain the mouse skulls, the heads were removed and autoclaved for 15 min to remove flesh and musculature. The defleshed skulls were then immersed in 3% hydrogen peroxide overnight at room temperature to remove any remaining flesh. The skulls were submerged in deionized water to remove residual hydrogen peroxide, soaked in 1% bleach solution for 30 sec, sonicated at 14 V for 1 min, and washed again with deionized water. Samples were brushed using toothpaste, sonicated again in 1% bleach for an additional 30 sec at 14 V, and washed with water. The cleaned skulls were stained by immersion in 1% methylene blue for 15 sec, followed by washing with water until the excess dye was removed.
To measure alveolar bone loss, a dissecting microscope fitted with a video imaging marker measurement system (model VIA-170K; Fryer) was used. Bone loss was determined by measuring the distance between the alveolar bone crest (ABC) and cemento-enamel junction (CEJ) at eight sites on the buccal sides of both left and right maxillary molars. […] Data were analyzed using one-way analysis of variance (ANOVA; Graph Pad Prism, La Jolla, CA), and a pairwise parametric analysis of variance using a Bonferroni multiple-comparison posttest was used to determine the statistical difference among the individual mouse groups. A P value of ≤0.05 was considered statistically significant.

The subject of data set [4] is HL60 cells. As to the kind of experiment: LDH release (CytoTox 96). In kind it is cell-based, human. To be noted: 18 h. Here is the method:
(§4) The CytoTox 96 nonradioactive cytotoxicity assay (Promega Inc. Madison, WI) was used to determine extracellular lactate dehydrogenase activity (LDH) in TIGK, J774A.1, and HL60 cell cultures treated with the test compounds. […] After an 18-h incubation, the cell supernatant was collected by centrifugation at 250 × g for 4 min, and 50 μl of cell free supernatant was transferred into wells of a fresh 96-well microtiter plate. Subsequently, 50 μl of the LDH substrate was added in each well and incubated at room temperature for 30 min. Reactions were stopped by adding 50 μl of the stop solution according to the manufacturer’s protocol, and the endpoint was measured by determining optical density at 490 nm. Cells treated with culture medium containing 0.1% DMSO or with medium alone served as negative controls, and cells incubated with 15-μl lysis buffer (supplied by manufacturer) for 1 h served as a positive control for lysis. All samples were tested in triplicate.

The subject of data set [5] is TIGK cells. The data set can be described thus: LDH release (CytoTox 96). The data set is classed as cell-based, human. To be noted: 18 h. Here is the method:
as §4

The test system of data set [6] is J774A.1 cells. The data set can be described thus: LDH release (CytoTox 96). In kind it is cell-based, mouse. To be noted: 18 h. The method, then:
as §4

Data set [7] deals with TIGK cells. As to the kind of experiment: total cellular ATP (CellTiterGlo). In kind it is cell-based, human. The settings on record: 18 h, versus negative controls. Here is the method: To determine the metabolic activity of cells, the total cellular ATP level was measured in cell culture samples using the CellTiterGlo reagent (Promega Inc. Madison, WI). Cells were grown as described above in the presence of the desired concentration of compounds. The spent medium was decanted, and cells were washed three times with PBS and subsequently incubated with 100 μl of the CellTiterGlo substrate. To facilitate the reaction, plates were incubated at room temperature for 2 min with shaking and for an additional 10 min without shaking. Total light production was measured using a Victor 3 multilabel plate reader (PerkinElmer).

Data set [8] deals with J774A.1 cells. To be noted: 18 h.
Method: The mouse macrophage cell line J774A.1 was grown in Dulbecco’s modified Eagle medium (DMEM) (Thermo Fisher Scientific, Waltham, MA) supplemented with 4.5 g/ml glucose, 10% fetal bovine serum (FBS), and 100 U/ml penicillin-streptomycin (Sigma-Aldrich, St. Louis, MO). HL60 (ATCC CCL240) cells were obtained from the American Type Culture Collection and cultured in Iscove’s modified Dulbecco’s medium (Sigma-Aldrich) supplemented with 20% fetal bovine serum (FBS) (Sigma-Aldrich).
The apoptotic activity of the compounds was determined using the phycoerythrin (PE) annexin V/dead cell apoptosis kit with Sytox green for flow cytometry (Invitrogen, Carlsbad, CA). Cells were grown in 12-well flat-bottom microtiter plates at an initial density 2 × 10^5 cells in 1.5-ml medium per well for 24 h. Following the incubation period, spent medium was replaced with fresh medium containing the desired concentration of the test compound and incubated for another 18 h. After trypsinization, cells were harvested by centrifuging at 250 × g for 4 min, and the cell pellet was suspended in 100 μl of binding buffer supplemented with 1 μl Sytox and 5 μl annexin V, followed by incubation at 37°C for 15 min. Samples were then diluted by adding 400-μl binding buffer, and flow cytometry was performed using a FACScalibur flow cytometer (Becton, Dickinson, Franklin Lakes, NJ), measuring the fluorescence emissions at 530 nm and 575 nm.

SMILES strings stand for the structures. Read-outs that look alike come from different tables or passages of the source.

For the molecule `Cl.N=c1n(CCN2CCCCC2)c2ccccc2n1CC(O)COc1ccc(Cl)cc1` (stereo not drawn) [N7, 1-(4-chlorophenoxy)-3-{2-imino-3-[2-(piperidin-1-yl)ethyl]-2,3-dihydro-1H-1,3-benzodiazol-1-yl}propan-2-ol hydrochloride], the “growth curve versus medium alone or 0.1% DMSO” value in data set [1] and in data set [2] was “not significantly different” throughout. For the same molecule, the “alveolar bone loss relative to sham-infected mice” value in data set [3] was “modest increase in bone loss relative to the sham-infected group”. In addition, the “alveolar bone loss versus infected untreated mice” value in data set [3] is “significant reduction in alveolar bone loss”. For the same molecule, the “overt signs of distress or toxicity in treated mice” value in data set [3] (transient exposure (∼20 min) during infection) is given as “did not exhibit any overt signs of distress or toxicity”. For the same molecule, the LDH release result in data set [4] (HL-60 cells, 20 μM and 40 μM) is recorded as “significant increases”; in data set [5] (40 μM) it was “significant increase in LDH release”; in data set [6] (J774A.1 cells, 20 μM and 40 μM), “significant increases”. Moreover, the “cellular ATP levels” value in data set [7] is recorded as “significantly reduced cellular ATP levels”. Moreover, the “Early apoptosis (%)” value is recorded as 2.5% in data set [8] (5 μM), 16.9% in data set [8] (20 μM) and 24.9% in data set [8] (40 μM). Moreover, the “Late apoptosis/necrosis (%)” value in data set [8] (5 μM) is recorded as 5.5%; in data set [8] (20 μM), 46.6%; in data set [8] (40 μM), 38.0%. Also, the results for the “Live cells (%)” value in data set [8] (5 μM), in data set [8] (20 μM) and in data set [8] (40 μM) were 83.9%, 33.4% and 36.2%, respectively.

For `O=C(Nc1ccccc1O)c1cccc(N2C(=O)c3ccc(C(=O)Nc4ccccc4O)cc3C2=O)c1` [N17, N-(2-hydroxyphenyl)-2-{3-[(2-hydroxyphenyl)carbamoyl]phenyl}-1,3-dioxo-2,3-dihydro-1H-isoindole-5-carboxamide], the “growth curve versus medium alone or 0.1% DMSO” value in data set [1] and in data set [2] was “not significantly different” in each case. Moreover, the “alveolar bone loss relative to sham-infected mice” value in data set [3] is given as “not significantly different from sham-infected animals”. For the same molecule, the “alveolar bone loss versus infected untreated mice” value in data set [3] is “significant reduction in alveolar bone loss”. The LDH release result in data set [4] (HL-60 cells, 5, 20 and 40 μM) was “no significant effect”; in data set [5] (versus negative controls) it was “did not significantly differ from the negative controls”; in data set [6] (J774A.1 cells, 5, 20 and 40 μM), “no significant effect”. The “cellular ATP levels” value in data set [7] was “did not significantly differ from the negative controls”. The “Early apoptosis (%)” value amounted to 1.0% in data set [8] (5 μM), 1.0% in data set [8] (20 μM) and 1.2% in data set [8] (40 μM). Moreover, the “Late apoptosis/necrosis (%)” value in data set [8] (5 μM) was 6.1%; in data set [8] (20 μM) it was 6.9%; in data set [8] (40 μM), 6.6%. Also, the “Live cells (%)” value in data set [8] (5 μM) amounted to 87.8%; in data set [8] (20 μM) it was 85.3%; in data set [8] (40 μM), 87.3%.

Turning to `Cc1cc([C@H]2CCCN(CC(=O)NC3(C#N)CCCC3)C2)n[nH]1` [V8, N-(1-cyanocyclopentyl)-2-[3-(5-methyl-1H-pyrazol-3-yl)piperidin-1-yl] acetamide], the “growth curve versus medium alone or 0.1% DMSO” value in data set [1] and in data set [2] was “not significantly different” throughout. In addition, the “alveolar bone loss relative to sham-infected mice” value in data set [3] was “modest increase in bone loss relative to the sham-infected group”. For the same molecule, the “alveolar bone loss versus infected untreated mice” value in data set [3] is reported as “significant reduction in alveolar bone loss”. In addition, the LDH release result is “no significant effect” in data set [4] (HL-60 cells, 5, 20 and 40 μM); “did not significantly differ from the negative controls” in data set [5] (versus negative controls); “no significant effect” in data set [6] (J774A.1 cells, 5, 20 and 40 μM). Besides, the “cellular ATP levels” value in data set [7] was “did not significantly differ from the negative controls”. The “Early apoptosis (%)” value in data set [8] (5 μM) came to 1.1%; in data set [8] (20 μM), 0.9%. The “Late apoptosis/necrosis (%)” value in data set [8] (5 μM) is given as 8.3%; in data set [8] (20 μM) it was 8.0%; in data set [8] (40 μM), 9.1%. Besides, the entries for the “Live cells (%)” value in data set [8] (5 μM), in data set [8] (20 μM) and in data set [8] (40 μM) were 85.1%, 83.4% and 84.3%, respectively.
